Assay results taken from patent publication US11518755B2, “Stable solutions of multicyclic antidepressants” (Leyden Technologies B.V., priority 2017, dated 2022).

Experiment: Solubility of clozapine in different solvent systems (excess clozapine, shaken 24 hours, HPLC)
Assay type: physicochemical
Procedure: For clozapine, solutions of 20 mg/mL or more are preferred for oral administration of the solution. For soft gel capsules an even higher concentration is preferable. Therefore, a solubility study for clozapine was performed. An excess of clozapine was weighed in a HPLC vial and 1.0 mL of various solvent systems was added. Following, the mixture was placed on a mechanical shaker for 24 hours at 200 RPM and analysed by HPLC for clozapine content.

CN1CCN(C2=Nc3cc(Cl)ccc3Nc3ccccc32)CC1 [Clozapine, 8-Chloro-11-(4-methylpiperazin-1-yl)-5H-dibenzo[b,e][1,4]diazepine]
clozapine content after 24 hours (solvent system: 0.1% acetic acid in water): 4.7 mg/mL
clozapine content after 24 hours (solvent system: 1% acetic acid in water): 38.1 mg/mL
clozapine content after 24 hours (solvent system: 1% citric acid in water): 27.6 mg/mL
clozapine content after 24 hours (solvent system: 5% Transcutol P in PEG400): 91.8 mg/mL
clozapine content after 24 hours (solvent system: 5% acetic acid in water): 51.5 mg/mL
clozapine content after 24 hours (solvent system: 5% citric acid in water): 34.2 mg/mL
clozapine content after 24 hours (solvent system: 10% Transcutol P in PEG400): 91.3 mg/mL
clozapine content after 24 hours (solvent system: 10% acetic acid in water): 59.8 mg/mL
clozapine content after 24 hours (solvent system: 10% citric acid in water): 50.7 mg/mL
clozapine content after 24 hours (solvent system: 20% Kolliphor RH40/PEG400 (10:90)): 72.8 mg/mL
clozapine content after 24 hours (solvent system: 20% Transcutol P in PEG400): 99.5 mg/mL
clozapine content after 24 hours (solvent system: 20% kolliphor RH40 in water): 7.4 mg/mL
clozapine content after 24 hours (solvent system: 40% corn oil in miglyol): 8.4 mg/mL
clozapine content after 24 hours (solvent system: 50% solutol in water): 17.8 mg/mL
clozapine content after 24 hours (solvent system: 50% solutol/PEG400 (10:90)): 81.6 mg/mL
clozapine content after 24 hours (solvent system: 100% Transcutol P): 151.3 mg/mL
clozapine content after 24 hours (solvent system: Caprylocaproyl macrogol-8 glycerides (Labrasol ®)): 34.0 mg/mL
clozapine content after 24 hours (solvent system: Citrate buffer pH 3.4): 57.2 mg/mL
clozapine content after 24 hours (solvent system: Citrate buffer pH 3.7): 44.0 mg/mL
clozapine content after 24 hours (solvent system: Citrate buffer pH 4.0): 34.3 mg/mL
clozapine content after 24 hours (solvent system: Citrate buffer pH 4.7): 19.9 mg/mL
clozapine content after 24 hours (solvent system: Corn oil): 5.1 mg/mL
clozapine content after 24 hours (solvent system: N,N′-dimethyl acetamide (DMA)): 106.8 mg/mL
clozapine content after 24 hours (solvent system: N-methyl-2-pyrrolydone (NMP)): 409.7 mg/mL
clozapine content after 24 hours (solvent system: PEG200): 81.8 mg/mL
clozapine content after 24 hours (solvent system: PEG400): 77.0 mg/mL
clozapine content after 24 hours (solvent system: PEG400/34 mmol Citrate buffer, 20:80 (V/V)): 52.7 mg/mL
clozapine content after 24 hours (solvent system: PEG400/34 mmol Citrate buffer, 40:60 (V/V)): 52.3 mg/mL
clozapine content after 24 hours (solvent system: PEG400/34 mmol Citrate buffer, 60:40 (V/V)): 47.6 mg/mL
clozapine content after 24 hours (solvent system: PEG400/34 mmol Citrate buffer, 80:20 (V/V)): 49.8 mg/mL
clozapine content after 24 hours (solvent system: PEG400/Citrate buffer pH 4.0, 50:50 (V/V)): 33.4 mg/mL
clozapine content after 24 hours (solvent system: PEG400/Citrate buffer pH 4.0, 60:40 (V/V)): 29.6 mg/mL
clozapine content after 24 hours (solvent system: PEG400/Citrate buffer pH 4.0, 70:30 (V/V)): 32.1 mg/mL
clozapine content after 24 hours (solvent system: PEG400/Citrate buffer pH 4.0, 80:20 (V/V)): 44.6 mg/mL
clozapine content after 24 hours (solvent system: PEG400/Citrate buffer pH 4.0, 90:10 (V/V)): 56.2 mg/mL
clozapine content after 24 hours (solvent system: PEG400/water (50:50)): 2.3 mg/mL
clozapine content after 24 hours (solvent system: PEG400/water (60:40)): 6.5 mg/mL
clozapine content after 24 hours (solvent system: PEG400/water (70:30)): 14.0 mg/mL
clozapine content after 24 hours (solvent system: PEG400/water (80:20)): 31.1 mg/mL
clozapine content after 24 hours (solvent system: PEG600/water (90:10)): 65.2 mg/mL
clozapine content after 24 hours (solvent system: ethanol): 33.9 mg/mL
clozapine content after 24 hours (solvent system: glycerol): 0.5 mg/mL
clozapine content after 24 hours (solvent system: miglyol): 10.3 mg/mL
clozapine content after 24 hours (solvent system: water): 0.3 mg/mL
